Data published in PMC7466159, “Anti-Metastasis Fascin Inhibitors Decrease the Growth of Specific Subtypes of Cancers” (Cancers, 2020).
Like-named read-outs stand apart in the source and are kept apart here.

Legend:
[1] = test system: NCI-H660 human neuroendocrine prostate cancer cells; test: Boyden chamber cell migration assay; format: cell-based; conditions: about twenty hours, 10% serum, read-out: IC50, tumor cell migration
Excerpt: Cells were stained with crystal violet staining solution, and cells on the upper side of the insert were removed with a cotton swab.

[2] = test system: HCC38 triple-negative breast cancer cells; test: Cell growth assay, HCC38; format: cell-based; conditions: HCC38 cells in culture, 10% serum
[3] = test system: phosphorylation of ERK, PLCγ1, and PI3K in MDA-MB-468 cells; test: EGFR signaling pathway Western blotting, MDA-MB-468; format: cell-based; conditions: 10 ng/mL EGF, 30 µM, 24 h
Experimental: MDA-MB-468 cells and HCC38 cells grew in the presence of EGF with or without NP-G2-044. […] Finally, we used the animal model to investigate whether the primary tumor growth of MDA-MB-468 cells was sensitive to fascin inhibitors. MDA-MB-468 tumor cells were implanted into the mammary gland of NSG mice, and these mice were randomly divided into four groups. One group of mice was used as control (Figure 6I). The second group of mice was treated with the fascin inhibitor NP-G2-044 (Figure 6I). The third group was treated with the EGFR inhibitor gefitnib (Figure 6I), and the fourth group was treated with the combination of NP-G2-044 + gefitinib (Figure 6I). […] We dissected the primary tumor tissues 55 days after the tumor implantation from some mice. […] Furthermore, the overall survival of the mice was analyzed (Figure 6K).
For the cell signal pathway analysis of breast cancer cells, HCC38 and MDA-MB-468 cells were plated in a 10-cm dish. After culture for 24 h, cells were incubated in serum-free medium for 16 h.

[4] = test system: MDA-MB-231 human triple-negative breast cancer cells; test: Overall survival of MDA-MB-231 tumor-bearing mice; format: in vivo
Experimental: (§1) The numbers of metastatic MDA-MB-231 cells in lungs were determined by a clonogenic assay. The lungs were removed from each mouse once sacrificed, and the resulting cells were suspended and plated with a series of dilutions in 10-cm tissue culture dishes in medium containing 2.0 µg/mL puromycin for clonogenic growth. As these MBA-MB-231 tumor cells were stably transfected with the vector pSuper-puro, the metastasized tumor cells formed foci after 14 days, at which time they were fixed with 4% paraformaldehyde and stained with crystal violet staining solution for counting. For combination treatments with chemotherapy, MDA-MB-231 tumor cells (1 × 10^5) suspended in PBS-matrigel (v/v, 1:1) were injected subcutaneously into the abdominal mammary gland area of mice on Day 0. Starting on Day 0, 7, or 14, NP-G2-044 was given to mice once a day for 6 days every week by oral gavage at 300 mg/kg per mouse. A vehicle solvent was given to the control mice once a day for 6 days every week. Starting on day 14, doxorubicin hydrochloride (MilliporeSigma, St. Louis, MO, USA) (2 mg/kg) and cyclophosphamide monohydrate (MilliporeSigma) (60 mg/kg) were given to mice once a week for four weeks. Primary tumors were removed on day 28. The death of the mice was used as the endpoint.

[5] = test system: HT cells; test: Cell growth assay, HT; conditions: HT cells in culture, 4 days
Experimental: We then extended our search to other types of lymphoma cells. […] Both U2932 and Ly10 cells are ABC-subtype DLBCLs, and HT cells are diffuse mixed lymphoma.
For NP-G2-044 dose-dependent studies, 1 × 10^5 Ly10, U2932, or HT cells were seeded in a 12- or 24-well plate on day 0. A total of 1, 3, 10, 30, or 100 μM NP-G2-044 or control solvent was added to the plates. Cells were collected and counted on day 4. For time-dependent studies, 1 × 10^5 Ly10, U2932, or HT cells were seeded in a 12- or 24-well plate on day 0. A total of 30 μM NP-G2-044, 5 μM LY2409881, 30 μM NP-G2-044 plus 5 μM LY2409881, or control solvent was added to the plates. Cells were collected and counted on Days 2 and 4. […] The cell growth index was expressed as the fold changes of cell numbers over the starting cell number. For these assays, the old medium was changed with a fresh medium containing the control solvent or the inhibitors every two days.

[6] = test system: MDA-MB-468 triple-negative breast cancer cells; test: Cell growth assay, MDA-MB-468; format: cell-based; conditions: MDA-MB-468 cells in culture, 10% serum
[7] = test system: MDA-MB-231 human triple-negative breast cancer cells; conditions: for inhibition of lung metastasis / IC50, metastasized tumor cells in the lungs: NSG mice, oral; for IC50, metastasized tumor cells in the lungs: six days a week, eight weeks
Experimental: We used two mouse models. In the first orthotopic spontaneous tumor metastasis mouse model, MDA-MB-231 human triple-negative breast cancer cells were injected into the orthotopic site (the mammary gland) of immuno-deficient NSG mice, and then the metastasis to the lung was monitored (Figure 2A–C). Seven days after the implantation of MDA-MB-231 tumor cells, we orally administered the mice with different concentrations of NP-G2-044 either once a day or twice a day for six days a week. After eight weeks, the mice were sacrificed and examined for metastasis in the lungs. […] Lung tumor metastasis was further verified by a histological analysis of lung sections and stained with hematoxylin and eosin (Figure 2C).
MDA-MB-231 cells (subclone LM2) (1 × 10^5) suspended in PBS-matrigel (v/v, 1:1) were injected subcutaneously into the abdominal mammary gland area of female NSG mice (6- to 8-week old from the Jackson Lab) on day 0 as previously described. Starting on Day 7, NP-G2-044 or the control solvent was given once or twice a day for 6 days every week by gavage until the eighth week. On the first day of the ninth week, the mice were killed.
as §1

[8] = test system: HT cells; test: Soft-agar colony formation assay, HT; format: cell-based; conditions: 14 days, dosage-dependent
Experimental: (§2) A total of 1 × or 2 ×10^4 cells were suspended in 0.5 mL of 0.3% low melting point agar (Merck KGaA, Darmstadt, Germany) in RPMI-1640 or DMEM containing 10% FBS and control solvent or the inhibitors. This suspension was overlaid on pre-solidified with 0.6% agar in the same medium in 24-well plates as previously described. Normal growth medium containing control solvent or the inhibitors was gently layered over the cultures every 4 days for 14 days. The colonies were stained with 0.1% crystal violet for 1 h at room temperature and counted under a microscope.

[9] = in vivo; conditions: mouse, plasma
Experimental: (§3) The PK parameters of NP-G2-044 were assessed following a single intravenous (IV) and single oral (PO) gavage dose administration to mice. Blood samples were collected pre-dose, and 3, 10, 30 min, 1, 1.5, 3, 6, 9, 24, 32, or 48 h after dosing. The plasma samples were then extracted and the concentrations of NP-G2-044 were determined by LC-MS/MS.
(§4) The concentrations of NP-G2-044 in plasma were determined using high performance liquid chromatography with tandem mass spectrometry (LC-MS/MS). All blood samples were transferred into a commercial tube containing potassium (K2) EDTA (ethylene diaminetetraacetic acid) and were processed for plasma. Samples were centrifuged (3000× g for 10 min at 2 to 8 °C) within one hour of collection. The assays used a Sciex API 4000 detector and nifedipine as an internal standard. The calibration ranges for NP-G2-044 were from 5.00 to 5000 ng/mL. The plasma concentration of NP-G2-044 in mice was subjected to a non-compartmental pharmacokinetic analysis by using the Phoenix WinNonlin software (version 6.3, Pharsight, Mountain View, CA, USA). The nominal dose levels and nominal sampling times were used in the calculation of all pharmacokinetic parameters. The linear/log trapezoidal rule was applied in obtaining the PK parameters.

[10] = Pharmacokinetic study after single IV and oral gavage dose, plasma by LC-MS/MS; conditions: mice
Experimental: as §3, §4

[11] = test system: U2932 cells; test: Soft-agar colony formation assay, U2932; format: cell-based; conditions: 14 days, dosage-dependent
Experimental: as §2

Cc1occc1C(=O)Nc1nn(Cc2ccc(C(F)(F)F)cc2)c2ccccc12 [NP-G2-044]
IC50 [1]: 3 to 5 µM
growth sensitivity [2]: sensitive
phosphorylation of ERK, PLCγ1, and PI3K [3]: affected
increase of median overall survival ([4]; NSG mice, compared with the control group, primary tumors removed on day 28): ~ 29%
overall survival by start of treatment ([4]; combination with chemotherapy, NP-G2-044 starting on Day 0 and Day 7 versus Day 14): longer overall survival
effect on cell growth [5]: inhibitory effect
growth sensitivity [6]: sensitive
inhibition of lung metastasis ([7]; 100 mg/kg twice a day): almost completely inhibition
inhibition of lung metastasis ([7]; 300 mg/kg once a day): almost complete inhibition
IC50, metastasized tumor cells in the lungs ([7]; once a day): 78.7 mg/kg
IC50, metastasized tumor cells in the lungs ([7]; twice a day): 29.2 mg/kg
tolerability of dosage regimen ([7]; mouse, in vivo): well tolerated with no signs of overt toxicity
number of growing colonies [8]: decreased the number of growing colonies
AUC(0-inf) ([9]; iv, 20 mg/kg): 7290 ± 1850 ng·h/mL
AUC(0-t) ([9]; iv, 20 mg/kg): 7150 ± 1750 ng·h/mL
C0 ([9]; iv, 20 mg/kg): 11300 ± 3840 ng/mL
MRT inf ([9]; iv, 20 mg/kg): 3.34 ± 0.68 h
MRT last ([9]; iv, 20 mg/kg): 2.81 ± 0.36 h
Vd ([9]; iv, 20 mg/kg): 9.3 L/kg
clearance ([9]; iv, 20 mg/kg): 48 ± 13.4 mL/min/kg
half-life ([9]; iv, 20 mg/kg): 5.45 ± 1.58 h
Tmax ([9]; po): 0.8 to 6 h
AUC(0-inf) ([9]; po, 20 mg/kg): 2570 ± 568 ng·h/mL
AUC(0-t) ([9]; po, 20 mg/kg): 2550 ± 575 ng·h/mL
Cmax ([9]; po, 20 mg/kg): 541 ± 176 ng/mL
MRT inf ([9]; po, 20 mg/kg): 6.46 ± 1.44 h
MRT last ([9]; po, 20 mg/kg): 6.16 ± 1.36 h
Tmax ([9]; po, 20 mg/kg): 0.83 ± 0.58 h
bioavailability ([9]; po, 20 mg/kg): 35.3%
half-life ([9]; po, 20 mg/kg): 4.36 ± 0.46 h
AUC(0-inf) ([9]; po, 50 mg/kg): 6210 ± 1650 ng·h/mL
AUC(0-t) ([9]; po, 50 mg/kg): 6190 ± 1650 ng·h/mL
Cmax ([9]; po, 50 mg/kg): 678 ± 258 ng/mL
MRT inf ([9]; po, 50 mg/kg): 7.54 ± 0.85 h
MRT last ([9]; po, 50 mg/kg): 7.4 ± 0.75 h
Tmax ([9]; po, 50 mg/kg): 4.17 ± 3.18 h
bioavailability ([9]; po, 50 mg/kg): 34.1%
half-life ([9]; po, 50 mg/kg): 3.58 ± 0.43 h
AUC(0-inf) ([9]; po, 100 mg/kg): 14300 ± 2390 ng·h/mL
AUC(0-t) ([9]; po, 100 mg/kg): 14300 ± 2400 ng·h/mL
Cmax ([9]; po, 100 mg/kg): 1450 ± 157 ng/mL
MRT inf ([9]; po, 100 mg/kg): 8.4 ± 0.41 h
MRT last ([9]; po, 100 mg/kg): 8.33 ± 0.38 h
Tmax ([9]; po, 100 mg/kg): 6 ± 3 h
bioavailability ([9]; po, 100 mg/kg): 39.2%
half-life ([9]; po, 100 mg/kg): 4.39 ± 1.56 h
Vd ([10]; IV, 20 mg/kg): 9.32 ± 1.35 L/kg
oral bioavailability (based on AUC0–t) ([10]; oral 20 to 100 mg/kg): 34–39%
number of growing colonies [11]: decreased the number of growing colonies
